Patent publication US20160046616A1, “NRF2 SMALL MOLECULE INHIBITORS FOR CANCER THERAPY” (THE JOHNS HOPKINS UNIVERSITY, priority 2013, published 2016)
Where two headings read alike, the source gives them in different places.

Experiments:
[1] = system: A549 NRF2-ARE-Fluc stable cell line; experiment: A549 Nrf2 assay: NRF2-ARE firefly luciferase reporter gene assay; type: cell-based; conditions: read-out: Potency of inhibition, A549
Source text: A549, the parental cell line, is a non-small-cell lung cancer (NSCLC) cell line with loss-of-function (LOF) Keap1 activity, thus NRF2 transcription factor constitutively translocates into the nucleus to activate the expression of downstream target genes of NRF2. A firefly luciferase reporter (Fluc) construct driven by a minimal promoter of NRF2-specific anti-oxidant responsive element (ARE) is stably expressed in the A549 cells. Compounds that reduce the translocation of NRF2 into the nucleus or prevent the interaction between NRF2 and ARE will lead to a decrease in luciferase activity.
The final concentration of DMSO was maintained at 0.46%. Control compounds Budesonide and Staurosporine were both added at a concentration of 2 mM and Budesonide also was added as a 1:10 titration, starting at 200 μM, to achieve dose-response. After an 18-24 hour incubation at 37° C., 95% humidity, and 5% CO2, 1 μL of 5× CellTiter-Fluor non-lytic cell viability assay reagent (Promega, Madison, Wis.) was added into the each well of the plates. The plates were then incubated for 30 minutes at room temperature before they were read on a ViewLux plate imager (Perkin Elmer, Waltham, Mass.) using an excitation wavelength of 405 nm and an emission wavelength of 525 nm.
A cell based reporter assay approach was used for the identification of agents that could inhibit Nrf2 mediated gene expression (FIG. 1). A549-ARE-luciferase cells express the luciferase gene driven by a minimal promoter and an enhancer element containing an NRF2 binding site (Antioxidant Response Element, ARE).
(§1) Representative compounds were assayed to assess the potency of inhibition in an A549 NRF2-ARE-Fluc stable cell line (A549 Nrf2 assay), in an H838 NRF2-ARE-Fluc stable cell line (H838 Nrf2 assay), and in an H1437 NRF2-ARE-Fluc stable cell line (H1437 Nrf2 assay) (see Table 3).

[2] = system: H1437 NRF2-ARE-Fluc stable cell line; experiment: H1437 Nrf2 assay: NRF2-ARE firefly luciferase reporter gene assay; type: cell-based; conditions: read-out: Potency of inhibition, H1437
Source text: H1437 is another NSCLC cell line with LOF Keap1 activity and constitutive translocation of NRF2 into the nucleus. A firefly luciferase reporter construct driven by a minimal promoter of NRF2-specific ARE is stably expressed in the H1437 cells. This cell line was used as a confirmation assay to make sure hits identified from primary screening and that passed counterscreen assays worked in different cell types with a constitutively active NRF2 pathway (deficiency in Keap1).
This assay was very similar to the primary assay except that the cell line was changed. […] The final concentration of DMSO was maintained at 0.46%. Control compounds Budesonide and Staurosporine were both added at a concentration of 2 mM and Budesonide was also added as a 1:10 titration, starting at 200 μM, to achieve dose-response. After an 18-24 hour incubation at 37° C., 95% humidity, and 5% CO2, 1 μL of 5× CellTiter-Fluor non-lytic cell viability assay reagent (Promega, Madison Wis.) was added into the each well of the plates. The plates were then incubated for 30 minutes at room temperature before they were read on a ViewLux plate imager (Perkin Elmer, Waltham Mass.) using an excitation wavelength of 405 nm and an emission wavelength of 525 nm.
as §1

[3] = Homo sapiens, NCI-H1437, H1437 NRF2-ARE-Fluc stable cell line

SMILES | IC50 ([1]; Homo sapiens) | IC50 [2, 3] | IC50 [1] | IC50 ([2]; H1437 NRF2-ARE-Fluc stable cell line)
Cc1ccccc1C(=O)N1CCc2cc(-c3csc(NC(=O)Cc4ccc5c(c4)OCO5)n3)ccc21 [Compound 2] | 5 to 25 µM | 5 to 25 µM | – | –
Cc1ccccc1C(=O)N1CCc2cc(-c3nc(NC(=O)Cc4ccc5c(c4)OCCO5)sc3C)ccc21 [Compound 5] | 5 to 25 µM | < 5 µM | – | –
COc1cccc(CC(=O)Nc2nc(-c3ccc4c(c3)CCN4C(=O)c3ccccc3C)c(C)s2)c1 [Compound 6] | < 5 µM | < 5 µM | – | –
COc1ccc(CC(=O)Nc2nc(-c3ccc4c(c3)CCN4C(=O)c3ccccc3C)c(C)s2)cc1 [Compound 7] | < 5 µM | < 5 µM | – | –
Cc1ccccc1C(=O)N1CCc2cc(-c3nc(NC(=O)Cc4ccccc4)sc3C)ccc21 [Compound 8] | < 5 µM | < 5 µM | – | –
Cc1ccccc1C(=O)N1CCc2cc(-c3nc(NC(=O)Cc4ccc5ccccc5c4)sc3C)ccc21 [Compound 9] | < 5 µM | 5 to 25 µM | – | –
Cc1ccc(CC(=O)Nc2nc(-c3ccc4c(c3)CCN4C(=O)c3ccccc3C)c(C)s2)cc1C [Compound 10] | 5 to 25 µM | > 25 µM | – | –
CC(=O)Nc1nc(-c2ccc3c(c2)CCN3C(=O)c2ccccc2C)c(C)s1 [Compound 11] | 5 to 25 µM | < 5 µM | – | –
Cc1ccccc1C(=O)N1CCc2cc(-c3nc(NC(=O)Cc4ccc(F)c(F)c4)sc3C)ccc21 [Compound 12] | < 5 µM | < 5 µM | – | –
Cc1ccccc1C(=O)N1CCc2cc(-c3nc(NC(=O)c4ccc5c(c4)OCO5)sc3C)ccc21 [Compound 13] | < 5 µM | 5 to 25 µM | – | –
Cc1sc(NC(=O)Cc2ccc3c(c2)OCO3)nc1-c1ccc2c(c1)CCN2C(=O)c1ccccc1 [Compound 14] | – | – | < 5 µM | 5 to 25 µM
O=C(Nc1ncc(Cc2ccc(C(F)(F)F)cc2)s1)c1ccco1 [Compound 15] | > 25 µM | > 25 µM | – | –
O=C(Nc1ncc(Cc2ccccc2)s1)c1ccc(-c2cccc([N+](=O)[O-])c2)o1 [Compound 16] | 5 to 25 µM | 5 to 25 µM | – | –
Cc1sc(NC(=O)Cc2ccc3c(c2)OCO3)nc1-c1ccc2c(c1)CCN2 [Compound 17, 2-(Benzo[d][1,3]dioxol-5-yl)-N-(4-(indolin-5-yl)-5-methylthiazol-2-yl)acetamide] | 5 to 25 µM | > 25 µM | – | –
O=C(Nc1ncc(Cc2ccc(C(F)(F)F)cc2)s1)c1ccc(-c2ccccc2[N+](=O)[O-])o1 [Compound 18] | 5 to 25 µM | < 5 µM | – | –
O=C(Nc1ncc(Cc2ccc(C(F)(F)F)cc2)s1)c1ccc(-c2ccccc2)o1 [Compound 19] | 5 to 25 µM | > 25 µM | – | –
O=C(Nc1ncc(Cc2cccc(C(F)(F)F)c2)s1)c1ccc(-c2cccc([N+](=O)[O-])c2)o1 [Compound 20] | 5 to 25 µM | < 5 µM | – | –
CC(=O)N1CCc2cc(-c3nc(NC(=O)Cc4ccc5c(c4)OCO5)sc3C)ccc21 [Compound 21] | < 5 µM | 5 to 25 µM | – | –
O=C(Nc1ncc(Cc2ccc(C(F)(F)F)cc2)s1)c1ccc(-c2ccc([N+](=O)[O-])cc2)o1 [Compound 22] | 5 to 25 µM | 5 to 25 µM | – | –
Cc1ccc(C(=O)N2CCc3cc(-c4nc(NC(=O)Cc5ccc6c(c5)OCO6)sc4C)ccc32)cc1 [Compound 23] | 5 to 25 µM | > 25 µM | – | –
Cc1ccccc1S(=O)(=O)N1CCc2cc(-c3nc(NC(=O)Cc4ccc5c(c4)OCO5)sc3C)ccc21 [Compound 24] | < 5 µM | 5 to 25 µM | – | –
Cc1sc(NC(=O)Cc2ccc3c(c2)OCO3)nc1-c1ccc2c(c1)CCN2C(=O)C1CCCCC1 [Compound 25] | 5 to 25 µM | < 5 µM | – | –
Cc1sc(NC(=O)Cc2ccc3c(c2)OCO3)nc1-c1ccc2c(c1)CCN2C [Compound 26] | 5 to 25 µM | > 25 µM | – | –

SMILES | IC50 ([1]; Homo sapiens) | IC50 [2, 3] | IC50 [1] | IC50 ([2]; H1437 NRF2-ARE-Fluc stable cell line)
O=C(Nc1ncc(Cc2ccc(C(F)(F)F)cc2)s1)c1ccc(-c2cccnc2)o1 [Compound 27] | 5 to 25 µM | < 5 µM | – | –
Cc1ccccc1C(=O)N1CCc2cc(-c3cccc(NC(=O)Cc4ccc5c(c4)OCO5)n3)ccc21 [Compound 28] | 5 to 25 µM | > 25 µM | – | –
Cc1cccc(C(=O)N2CCc3cc(-c4nc(NC(=O)Cc5ccc6c(c5)OCO6)sc4C)ccc32)c1 [Compound 29] | > 25 µM | 5 to 25 µM | – | –
Cc1ccccc1C(=O)n1ccc2cc(-c3nc(NC(=O)Cc4ccc5c(c4)OCO5)sc3C)ccc21 [Compound 30] | 5 to 25 µM | 5 to 25 µM | – | –
Cc1ccccc1C(=O)N1CCc2cc(-c3cccc(NC(=O)Cc4ccc5c(c4)OCO5)c3)ccc21 [Compound 31] | 5 to 25 µM | > 25 µM | – | –
CCN(CC)S(=O)(=O)c1cccc(C(=O)Nc2ccc(C#N)cc2)c1 [Compound 32] | < 5 µM | 5 to 25 µM | – | –
CCN(C1CCCCC1)S(=O)(=O)c1ccc(S(=O)(=O)NCc2ccncc2)cc1 [Compound 33] | 5 to 25 µM | < 5 µM | – | –
O=C(Nc1ccc(S(=O)(=O)N2CCN(Cc3ccccc3)CC2)cc1)c1cnccn1 [Compound 34] | < 5 µM | 5 to 25 µM | – | –
CC(=O)N1CCc2cc(S(=O)(=O)NCCC3=CCCCC3)ccc21 [Compound 35] | < 5 µM | 5 to 25 µM | – | –
CC1CCCN(C(=O)c2ccc(S(=O)(=O)N3CCC(c4nc5ccccc5s4)CC3)cc2)C1 (centres unmarked) [Compound 36] | < 5 µM | < 5 µM | – | –
CCN(CC)C(=O)c1ccc(S(=O)(=O)N2CCC(c3nc4ccccc4s3)CC2)cc1 [Compound 37] | < 5 µM | < 5 µM | – | –
O=C(Nc1ccc(S(=O)(=O)N2CCCCC2)cc1)c1ccc(CN2CCc3ccccc3C2)cc1 [Compound 38] | < 5 µM | < 5 µM | – | –
NC(=O)c1ccc(N2CCN(S(=O)(=O)c3ccccc3)CC2)c([N+](=O)[O-])c1 [Compound 39] | < 5 µM | 5 to 25 µM | – | –
CCC(=O)N1c2ccc(S(=O)(=O)N3CCN(c4ccc([N+](=O)[O-])cc4)CC3)cc2CC1C (centres unmarked) [Compound 40] | < 5 µM | < 5 µM | – | –
NC(=O)C1CCN(c2ccc(S(=O)(=O)N3CCC(Cc4ccccc4)CC3)cn2)CC1 [Compound 41] | < 5 µM | 5 to 25 µM | – | –
COc1ccc(-c2cc(C)no2)cc1S(=O)(=O)N1CCN(c2ccc([N+](=O)[O-])cc2)CC1 [Compound 42] | < 5 µM | < 5 µM | – | –
Cc1csc2ncnc(N3CCN(S(=O)(=O)c4cccc(C(F)(F)F)c4)CC3)c12 [Compound 43] | 5 to 25 µM | < 5 µM | – | –
Cc1ccccc1CCNC(=O)c1ccc(Cl)c(S(=O)(=O)N2CC(C)OC(C)C2)c1 (centres unmarked) [Compound 44] | 5 to 25 µM | 5 to 25 µM | – | –
Cc1ccc(NC(=O)COc2ccccc2C(N)=O)cc1S(=O)(=O)N1CCCCCC1 [Compound 45] | < 5 µM | < 5 µM | – | –
Cc1ccc(NC(=O)c2ccc(S(=O)(=O)N(C)c3ccccc3)cc2)cc1S(=O)(=O)N1CCOCC1 [Compound 46] | < 5 µM | 5 to 25 µM | – | –
O=C(Nc1cccc(Cc2ccccc2)c1)c1ccc(-c2cccc([N+](=O)[O-])c2)o1 [Compound 56] | 5 to 25 µM | 5 to 25 µM | – | –
O=C(Cc1ccccc1)Nc1cccc(-c2ccc3[nH]cnc3c2)n1 [Compound 57, N-(6-(1H-benzo[d]imidazol-5-yl)pyridin-2-yl)-2-phenylacetamide] | > 25 µM | > 25 µM | – | –
O=C(Nc1ncc(Cc2ccc(C(F)(F)F)cc2)s1)c1ccnc(-c2ccccc2)c1 [Compound 58] | > 25 µM | 5 to 25 µM | – | –
